In data set [1] the test system is vaccinia virus (VV). The settings on record: in vitro, read-out: 50% effective concentration [EC50], inhibition of virus replication; cited from earlier work.
Data set [2] has as its system cowpox virus (CV). The conditions noted are these: in vitro, read-out: 50% effective concentration [EC50], inhibition of virus replication; cited from earlier work.
Data set [3] relates to ectromelia virus (ECTV). The conditions noted are these: read-out: 50% effective concentration [EC50], inhibition of virus replication; cited from earlier work.
For data set [4], the system named is monkeypox. The settings on record: in vitro, read-out: 50% effective concentration [EC50], inhibition of virus replication; cited from earlier work.
The test system of data set [5] is camelpox. The conditions noted are these: read-out: 50% effective concentration [EC50], inhibition of virus replication; cited from earlier work.
In data set [6] the test system is variola viruses. The conditions noted are these: in vitro, read-out: 50% effective concentration [EC50], inhibition of virus replication; cited from earlier work.
Data set [7] concerns VV. The settings on record: lethal infection with VV; treatments delayed up to 72 h post-viral inoculation; cited from earlier work.
Data set [8] deals with CV. The settings on record: lethal infection with CV; treatments delayed up to 72 h post-viral inoculation; cited from earlier work.
For data set [9], the system named is VV. The settings on record: orally twice a day at 15 or 50 mg/kg of body weight for 5 days; cited from earlier work.
Data set [10] is described as follows: physchem. The settings on record: aqueous buffer.
Data set [11] relates to ECTV. The settings on record: mouse, in vivo; cited from earlier work.

Converted amounts (≈) assume the structure as drawn.

For orientation: solubility means the dissolved amount per volume that the medium holds. Regarding `O=C(NN1C(=O)[C@@H]2[C@@H]3C=C[C@@H]([C@H]4C[C@@H]34)[C@@H]2C1=O)c1ccc(C(F)(F)F)cc1` [ST-246, 4-trifluoromethyl-N-(3,3a,4,4a,5,5a,6,6a-octahydro-1,3-dioxo-4,6-ethenocycloprop[f]isoindol-2-(1H)-yl)-benzamide], the EC50 in data set [1], in data set [2], in data set [3], in data set [4], in [5] and in data set [6] was at most 70 nM throughout. In addition, the “preventing or reducing mortality” value in data set [7], in data set [8] and in data set [11] was “highly effective in preventing or reducing mortality” each time. Further, the tail lesions entry in data set [9] is “significantly reduced”. In [10], this compound returned a solubility of about 2 µg/mL (≈ 5.31 µM). Moreover, the “toxicity in animal models” value in [11] is reported as “nontoxic”.

(Values after patent publication US11779566B2 (priority 2016, dated 2023).)
